# Measured values taken from patent EP3323812B1, “ARYLALKYL-AND ARYLOXYALKYL-SUBSTITUTED EPITHELIAL SODIUM CHANNEL BLOCKING COMPOUNDS” (Parion Sciences, Inc., priority 2012, dated 2014).
# Assays:
# Muc5B = Muc5B (Homo sapiens, UniProt Q9HC84); conditions: in vitro; also printed as 3.26%; cited from earlier work
# CBE cells = assay: Airway hydration: apical surface liquid retention on primary CBE cells at air-liquid interface; assay type: cell-based, canine; conditions: 10 µM, after 8 hours, 50 µl applied to apical surface of CBE cells
# Procedure: Primary CBE cells are plated onto collagen-coated, porous membranes maintained at an air-liquid interface to assess maintenance of surface liquid volume over time. […] To reduce artifact due to an apical carbohydrate osmotic gradient upon water loss, glucose was not included in the apical buffer.
Compound,concentration required to fully reduce Muc5B (Muc5B) [mM],surface liquid retained (% initial volume) (CBE cells) [%]
"CC(=O)N[C@@H](CS)C(=O)O [NAC, N-acetyl cysteine]",200,–
"N=C(N)NC(=O)c1nc(Cl)c(N)nc1N [Amiloride, amiloride]",–,25±19.2
